Measurements as given in patent US12559529B2, “NPY2 receptor agonists” (Boehringer Ingelheim International GmbH, priority 2019, dated 2026).
*1 amine or outer side, *2 acyl side, *3 side chain or, on linkers, in order; H or OH if unused. Where a SMILES comes first, the peptide text is derived from it. Side-chain parts run from the residue outwards. The star is where a group is joined. C18 diacid = O=C(O)CCCCCCCCCCCCCCCCC(=O)*; γGlu = O=C(O)[C@H](CCC(=O)[*:2])N[*:1]; Isovaleryl = CC(C)CC(=O)*; AEEA = NCCOCCOCC(=O)O

What follows are molecules tested against T1, Human Neuropeptide Y2 Receptor (Homo sapiens, UniProt P49146) (assay: Radioligand binding competition assay (RLB)). Settings: Table 3; human 125I-PYY (1-36) 0.02 nM, Y2 receptor membranes; read-out: Ki.
T1 construct: purchased CHEMICON HTS066M
T1 sequence (P49146 1-381): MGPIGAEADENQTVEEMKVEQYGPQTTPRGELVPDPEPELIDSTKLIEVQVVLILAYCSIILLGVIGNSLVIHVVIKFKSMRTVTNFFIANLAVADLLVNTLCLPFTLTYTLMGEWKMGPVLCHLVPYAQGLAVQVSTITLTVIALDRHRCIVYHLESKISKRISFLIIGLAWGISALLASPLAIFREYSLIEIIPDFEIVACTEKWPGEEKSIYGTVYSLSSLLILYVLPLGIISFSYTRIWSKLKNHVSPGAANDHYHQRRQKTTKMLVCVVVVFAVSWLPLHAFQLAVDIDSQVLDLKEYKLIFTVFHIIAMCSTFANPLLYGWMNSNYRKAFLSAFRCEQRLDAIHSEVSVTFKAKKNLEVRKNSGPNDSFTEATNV
Outline: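 Competition binding at commercial human NPY Y2 membrane preparations, 0.5 μg protein per well, 2 h incubation at room temperature. Bound and free ligand were separated on GF/C filters and counted; IC50 was fitted by nonlinear regression.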

Compound | Ki
CC(C)CC(=O)N[C@@H](C)C(=O)N1CCC[C@H]1C(=O)N[C@@H](C)C(=O)N[C@@H](CCCCNC(=O)COCCOCCNC(=O)COCCOCCNC(=O)CC[C@H](NC(=O)CCCCCCCCCCCCCCCCC(=O)O)C(=O)O)C(=O)N1CCC[C@H]1C(=O)N[C@@H](CCC(=O)O)C(=O)N[C@@H](C)C(=O)N[C@@H](CC(=O)O)C(=O)N[C@@H](C)C(=O)N[C@@H](CCC(=O)O)C(=O)N1CCC[C@H]1C(=O)N[C@@H](CCC(=O)O)C(=O)N[C@@H](CCC(=O)O)C(=O)N[C@@H](CC(C)C)C(=O)N[C@@H](CCC(N)=O)C(=O)N[C@@H](CCCNC(=N)N)C(=O)N[C@@H](Cc1ccc(O)cc1)C(=O)N[C@@H](Cc1ccc(O)cc1)C(=O)N[C@H](C(=O)N[C@@H](CO)C(=O)N[C@@H](CC(C)C)C(=O)N[C@@H](CCCNC(=N)N)C(=O)N[C@@H](Cc1c[nH]cn1)C(=O)N[C@@H](Cc1ccc(O)cc1)C(=O)N[C@@H](Cc1ccc(O)cc1)C(=O)N[C@@H](CC(N)=O)C(=O)N[C@@H](Cc1c[nH]c2ccccc12)C(=O)N[C@@H](CC(C)C)C(=O)N[C@H](C(=O)N[C@@H](CCCNC(=N)N)C(=O)N[C@@H](CCC(N)=O)C(=O)N[C@@H](CCCNC(=N)N)C(=O)N[C@@H](Cc1ccc(O)cc1)C(N)=O)[C@@H](C)O)C(C)C [Compound 207, N{alpha-4}-(3-methylbutanoyl)-N{epsilon-7}-[2-(2-{2-[2-(2-{2-[(4S)-4-carboxy-4-(17-carboxyheptadecanamido)butanamido]ethoxy}ethoxy)acetamido]ethoxy}ethoxy)acetamido]-[4A,6A,7K,9E,10A,13E,18Q,22V,28Y,30W,31L]hPYY (4-36)] | 1.07 nM
CC[C@H](C)[C@H](NC(=O)[C@H](CCCCNC(=O)COCCOCCNC(=O)COCCOCCNC(=O)CC[C@H](NC(=O)CCCCCCCCCCCCCCCCC(=O)O)C(=O)O)NC(=O)[C@H](CCC(=O)O)NC(=O)[C@@H]1CCCN1C(=O)[C@H](C)NC(=O)CC(C)C)C(=O)N[C@@H](CCC(=O)O)C(=O)N[C@@H](CCC(=O)O)C(=O)N[C@@H](CCC(=O)O)C(=O)N[C@@H](C)C(=O)N[C@@H](CO)C(=O)N1CCC[C@H]1C(=O)N[C@@H](CCC(=O)O)C(=O)N[C@@H](CCC(=O)O)C(=O)N[C@@H](CC(C)C)C(=O)N[C@@H](CCC(N)=O)C(=O)N[C@@H](CCCNC(=N)N)C(=O)N[C@@H](Cc1ccc(O)cc1)C(=O)N[C@@H](Cc1ccc(O)cc1)C(=O)N[C@H](C(=O)N[C@@H](CO)C(=O)N[C@@H](CC(C)C)C(=O)N[C@@H](CCCNC(=N)N)C(=O)N[C@@H](Cc1c[nH]cn1)C(=O)N[C@@H](Cc1ccc(O)cc1)C(=O)N[C@@H](Cc1ccc(O)cc1)C(=O)N[C@@H](CC(N)=O)C(=O)N[C@@H](Cc1c[nH]c2ccccc12)C(=O)N[C@@H](CC(C)C)C(=O)N[C@H](C(=O)N[C@@H](CCCNC(=N)N)C(=O)N[C@@H](CCC(N)=O)C(=O)N[C@@H](CCCNC(=N)N)C(=O)N[C@@H](Cc1ccc(O)cc1)C(N)=O)[C@@H](C)O)C(C)C [Compound 210, N{alpha-4}-(3-methylbutanoyl)-N{epsilon-7}-[2-(2-{2-[2-(2-{2-[(4S)-4-carboxy-4-(17-carboxyheptadecanamido)butanamido]ethoxy}ethoxy)acetamido]ethoxy}ethoxy)acetamido]-[4A,7K,8I,9E,11E,18Q,22V,28Y,30W,31L]hPYY (4-36)] (Isovaleryl-APEK([AEEA-AEEA-γGlu-C18 diacid])IEEEASPEELQRYYVSLRHYYNWLTRQRY-NH2) | 10.5 nM

Other lines, results leading:

Ki | Compound
20.3 nM | CC(C)CC(=O)N[C@@H](C)C(=O)N1CCC[C@H]1C(=O)N[C@@H](CCC(=O)O)C(=O)N[C@@H](CCCCNC(=O)COCCOCCNC(=O)COCCOCCNC(=O)CC[C@H](NC(=O)CCCCCCCCCCCCCCCCC(=O)O)C(=O)O)C(=O)N1CCC[C@H]1C(=O)N[C@@H](CCC(=O)O)C(=O)N[C@@H](CCC(=O)O)C(=O)N[C@@H](CC(=O)O)C(=O)N[C@H](C(=O)N[C@@H](C)C(=O)N1CCC[C@H]1C(=O)N[C@@H](CCC(=O)O)C(=O)N[C@@H](CCC(=O)O)C(=O)N[C@@H](CC(C)C)C(=O)N[C@@H](CCC(N)=O)C(=O)N[C@@H](CCCNC(=N)N)C(=O)N[C@@H](Cc1ccc(O)cc1)C(=O)N[C@@H](Cc1ccc(O)cc1)C(=O)N[C@H](C(=O)N[C@@H](CO)C(=O)N[C@@H](CC(C)C)C(=O)N[C@@H](CCCNC(=N)N)C(=O)N[C@@H](Cc1c[nH]cn1)C(=O)N[C@@H](Cc1ccc(O)cc1)C(=O)N[C@@H](Cc1ccc(O)cc1)C(=O)N[C@@H](CC(N)=O)C(=O)N[C@@H](Cc1c[nH]c2ccccc12)C(=O)N[C@@H](CC(C)C)C(=O)N[C@H](C(=O)N[C@@H](CCCNC(=N)N)C(=O)N[C@@H](CCC(N)=O)C(=O)N[C@@H](CCCNC(=N)N)C(=O)N[C@@H](Cc1ccc(O)cc1)C(N)=O)[C@@H](C)O)C(C)C)[C@@H](C)O [Compound 212, N{alpha-4}-(3-methylbutanoyl)-N{epsilon-7}-[2-(2-{2-[2-(2-{2-[(4S)-4-carboxy-4-(17-carboxyheptadecanamido)butanamido]ethoxy}ethoxy)acetamido]ethoxy}ethoxy)acetamido]-[4A,7K,9E,12T,13A,18Q,22V,28Y,30W,31L]hPYY (4-36)]
6.54 nM | CC(C)CC(=O)N[C@@H](C)C(=O)N1CCC[C@H]1C(=O)N[C@@H](CCC(=O)O)C(=O)N[C@@H](CCCCNC(=O)COCCOCCNC(=O)COCCOCCNC(=O)CC[C@H](NC(=O)CCCCCCCCCCCCCCCCC(=O)O)C(=O)O)C(=O)N1CCC[C@H]1C(=O)N[C@@H](CCC(=O)O)C(=O)N[C@@H](CCC(=O)O)C(=O)N[C@@H](CCC(=O)O)C(=O)N[C@H](C(=O)N[C@@H](CO)C(=O)N1CCC[C@H]1C(=O)N[C@@H](CCC(=O)O)C(=O)N[C@@H](CCC(=O)O)C(=O)N[C@@H](CC(C)C)C(=O)N[C@@H](CCC(N)=O)C(=O)N[C@@H](CCCNC(=N)N)C(=O)N[C@@H](Cc1ccc(O)cc1)C(=O)N[C@@H](Cc1ccc(O)cc1)C(=O)N[C@H](C(=O)N[C@@H](CO)C(=O)N[C@@H](CC(C)C)C(=O)N[C@@H](CCCNC(=N)N)C(=O)N[C@@H](Cc1c[nH]cn1)C(=O)N[C@@H](Cc1ccc(O)cc1)C(=O)N[C@@H](Cc1ccc(O)cc1)C(=O)N[C@@H](CC(N)=O)C(=O)N[C@@H](Cc1c[nH]c2ccccc12)C(=O)N[C@@H](CC(C)C)C(=O)N[C@H](C(=O)N[C@@H](CCCNC(=N)N)C(=O)N[C@@H](CCC(N)=O)C(=O)N[C@@H](CCCNC(=N)N)C(=O)N[C@@H](Cc1ccc(O)cc1)C(N)=O)[C@@H](C)O)C(C)C)[C@@H](C)O [Compound 213, N{alpha-4}-(3-methylbutanoyl)-N{epsilon-7}-[2-(2-{2-[2-(2-{2-[(4S)-4-carboxy-4-(17-carboxyheptadecanamido)butanamido]ethoxy}ethoxy)acetamido]ethoxy}ethoxy)acetamido]-[4A,7K,9E,11E,12T,18Q,22V,28Y,30W,31L]hPYY (4-36)] (Isovaleryl-APEK([AEEA-AEEA-γGlu-C18 diacid])PEEETSPEELQRYYVSLRHYYNWLTRQRY-NH2)
0.48 nM | CC(C)CC(=O)N[C@@H](C)C(=O)N1CCC[C@H]1C(=O)N[C@@H](CCC(=O)O)C(=O)N[C@@H](CCCCNC(=O)COCCOCCNC(=O)COCCOCCNC(=O)CC[C@H](NC(=O)CCCCCCCCCCCCCCCCC(=O)O)C(=O)O)C(=O)N1CCC[C@H]1C(=O)N[C@@H](CCC(=O)O)C(=O)N[C@@H](CCC(=O)O)C(=O)N[C@@H](CC(=O)O)C(=O)N[C@@H](C)C(=O)N[C@@H](CO)C(=O)N1CCC[C@H]1C(=O)N[C@@H](C)C(=O)N[C@@H](CCC(=O)O)C(=O)N[C@@H](CC(C)C)C(=O)N[C@@H](CCC(N)=O)C(=O)N[C@@H](CCCNC(=N)N)C(=O)N[C@@H](Cc1ccc(O)cc1)C(=O)N[C@@H](Cc1ccc(O)cc1)C(=O)N[C@H](C(=O)N[C@@H](CCC(=O)O)C(=O)N[C@@H](CC(C)C)C(=O)N[C@@H](CCCNC(=N)N)C(=O)N[C@@H](Cc1c[nH]cn1)C(=O)N[C@@H](Cc1ccc(O)cc1)C(=O)N[C@@H](Cc1ccc(O)cc1)C(=O)N[C@@H](CC(N)=O)C(=O)N[C@@H](Cc1c[nH]c2ccccc12)C(=O)N[C@@H](CC(C)C)C(=O)N[C@H](C(=O)N[C@@H](CCCNC(=N)N)C(=O)N[C@@H](CCC(N)=O)C(=O)N[C@@H](CCCNC(=N)N)C(=O)N[C@@H](Cc1ccc(O)cc1)C(N)=O)[C@@H](C)O)C(C)C [Compound 215, N{alpha-4}-(3-methylbutanoyl)-N{epsilon-7}-[2-(2-{2-[2-(2-{2-[(4S)-4-carboxy-4-(17-carboxyheptadecanamido)butanamido]ethoxy}ethoxy)acetamido]ethoxy}ethoxy)acetamido]-[4A,7K,9E,15A,18Q,22V,23E,28Y,30W,31L]hPYY (4-36)]
